From ChEMBL document CHEMBL1121689, “A dopamine receptor model and its application in the design of a new class of rigid pyrrolo[2,3-g]isoquinoline antipsychotics” (1981)

Columns and labels:
[1] = test system: Rattus norvegicus; assay: Dose required for producing 50% block of avoidance responding in rats after peroral administration; format: functional
[2] = test system: Rattus norvegicus; assay: Dose required for producing 20% block of escape responding in rats after peroral administration; format: functional

## CCc1c(C)[nH]c2c1C(=O)C1CN(C)CCC1C2.Cl (racemic)
[1]
  ABD50: 0.72 mg/kg
[2]
  EBD20: 9.8 mg/kg

## O=C(CCCN1CCC(O)(c2ccc(Cl)cc2)CC1)c1ccc(F)cc1 [HALOPERIDOL]
[1]
  ABD50: 0.35 mg/kg
[2]
  EBD20: 2.7 mg/kg

## CCc1c(C)[nH]c2c1C(=O)[C@H]1CN(C)CC[C@@H]1C2.Cl
[1]
  ABD50: 0.49 mg/kg
[2]
  EBD20: 3.6 mg/kg

## CCc1c(C)[nH]c2c1C(=O)[C@@H]1CN(C)CC[C@H]1C2.Cl
[1]
  ABD50: >6 mg/kg

## CCc1c(C)[nH]c2c1C(=O)C(CN1CCOCC1)CC2 (centres undefined) [MOLINDONE]
[1]
  ABD50: 3.6 mg/kg
[2]
  EBD20: 17.1 mg/kg
